Laboratory results taken from the NIST ThermoML archive (doi:10.1016/j.jct.2010.08.021).
± gives the expanded uncertainty stated by the source.

Assay: mn = molality of the nth substance listed, in mol/kg
Details: 101 kPa, Liquid; for mass density: Vibrating tube method; for speed of sound: Sing-around technique in a fixed-path interferometer

## NCC(=O)O [2-aminoacetic acid] + O
298.15 K, m1 = 0.1908
  mass density: 1003.05 ± 0.11 kg/m3
298.15 K, m1 = 0.2165
  mass density: 1003.84 ± 0.11 kg/m3
298.15 K, m1 = 0.2303
  mass density: 1004.27 ± 0.11 kg/m3
298.15 K, m1 = 0.2506
  mass density: 1004.9 ± 0.11 kg/m3
298.15 K, m1 = 0.2735
  mass density: 1005.61 ± 0.11 kg/m3
303.15 K, m1 = 0.0303
  speed of sound: 1510.9 ± 1.2 m/s
  mass density: 996.608 ± 0.11 kg/m3
303.15 K, m1 = 0.0407
  speed of sound: 1511.4 ± 1.2 m/s
  mass density: 996.933 ± 0.11 kg/m3
303.15 K, m1 = 0.0487
  speed of sound: 1511.8 ± 1.2 m/s
303.15 K, m1 = 0.0549
  speed of sound: 1512.2 ± 1.2 m/s
  mass density: 997.375 ± 0.11 kg/m3
303.15 K, m1 = 0.0649
  speed of sound: 1512.7 ± 1.2 m/s
303.15 K, m1 = 0.066
  speed of sound: 1512.7 ± 1.2 m/s
303.15 K, m1 = 0.0799
  speed of sound: 1513.4 ± 1.2 m/s
  mass density: 998.158 ± 0.11 kg/m3
303.15 K, m1 = 0.0959
  speed of sound: 1514.3 ± 1.2 m/s
  mass density: 998.661 ± 0.11 kg/m3
303.15 K, m1 = 0.1125
  speed of sound: 1515.1 ± 1.2 m/s
  mass density: 999.18 ± 0.11 kg/m3
303.15 K, m1 = 0.1349
  speed of sound: 1516.2 ± 1.2 m/s
  mass density: 999.878 ± 0.11 kg/m3
303.15 K, m1 = 0.1608
  speed of sound: 1517.5 ± 1.2 m/s
  mass density: 1000.67 ± 0.11 kg/m3
303.15 K, m1 = 0.1908
  speed of sound: 1519 ± 1.2 m/s
  mass density: 1001.6 ± 0.11 kg/m3
303.15 K, m1 = 0.2165
  speed of sound: 1520.3 ± 1.2 m/s
  mass density: 1002.38 ± 0.11 kg/m3
303.15 K, m1 = 0.2303
  speed of sound: 1521 ± 1.2 m/s
  mass density: 1002.81 ± 0.11 kg/m3
303.15 K, m1 = 0.2506
  speed of sound: 1522 ± 1.2 m/s
  mass density: 1003.43 ± 0.11 kg/m3
303.15 K, m1 = 0.2735
  speed of sound: 1523.2 ± 1.2 m/s
  mass density: 1004.13 ± 0.11 kg/m3
308.15 K, m1 = 0.0303
  speed of sound: 1521.5 ± 1.2 m/s
308.15 K, m1 = 0.0407
  speed of sound: 1522 ± 1.2 m/s
308.15 K, m1 = 0.0487
  speed of sound: 1522.5 ± 1.2 m/s
308.15 K, m1 = 0.0549
  speed of sound: 1522.8 ± 1.2 m/s
308.15 K, m1 = 0.0649
  speed of sound: 1523.3 ± 1.2 m/s
308.15 K, m1 = 0.066
  speed of sound: 1523.3 ± 1.2 m/s
308.15 K, m1 = 0.0799
  speed of sound: 1524 ± 1.2 m/s
308.15 K, m1 = 0.0959
  speed of sound: 1524.8 ± 1.2 m/s
308.15 K, m1 = 0.1125
  speed of sound: 1525.6 ± 1.2 m/s
308.15 K, m1 = 0.1349
  speed of sound: 1526.7 ± 1.2 m/s
